Structures can show the parent of a compound that is named as a salt.

The subject of one test is Gram-positive organisms (Staphylococcus aureus, Streptococcus pneumoniae, Streptococcus pyogenes, Enterococcus faecalis, Enterococcus faecium) and ….
Assay: not given
In kind it is cell-based. To be noted: against a strain of at least one of the organisms listed; tested in at least one exemplified salt form.
As for `CC(C)(O)c1c(F)cnc2ccc(=O)n(CCN3CCC(NCc4ccc5c(n4)NC(=O)CO5)CC3)c12` [Example 183], the MIC is 16 µg/mL.

Consider `COc1ccc2ncc(=O)n(CCN3C[C@H](CNCc4ccn5ccc(=O)nc5c4)[C@H](O)C3)c2n1` [Example 272], for which the MIC is over 16 µg/mL.

The subject of a further test is Mycobacterium tuberculosis H37Rv. Briefly: Mycobacterium tuberculosis H37Rv Inhibition Assay (resazurin, MIC). The format is cell-based. Particulars: ATCC 25618 / H37Rv, 144 h, H37Rv strain (ATCC25618), Middlebrook 7H9+ADC medium, six days at 37° C., resazurin fluorescence after 48 hours, read-out: MIC value.
In the case of `O=c1cnc2ccc(F)cc2n1CCN1CCC(NCc2cc3c(cn2)OCCO3)CC1` [Example 20, 1-(2-{4-[(2,3-dihydro[1,4]dioxino[2,3-c]pyridin-7-ylmethyl)amino]-1-piperidinyl}ethyl)-7-fluoro-2(1H)-quinoxalinone Dihydrochloride], the MIC was at most 4 µg/mL. Still for that read-out and setting: with `COc1ccc2ncc(=O)n(CCN3CCC(NCc4cc5c(cn4)OCCO5)CC3)c2n1` [Example 37, 4-(2-{4-[(2,3-dihydro[1,4]dioxino[2,3-c]pyridin-7-ylmethyl)amino]-1-piperidinyl}ethyl)-6-(methyloxy)pyrido[2,3-b]pyrazin-3(4H)-one Dihydrochloride] the figure was at most 4 µg/mL. As for `O=C1CSc2ccc(CNC[C@@H]3C[C@H](O)CN(CCn4c(=O)ccc5ccc(F)cc54)C3)nc2N1` (racemic) [Example 158], the minimal inhibitory concentration (MIC) is at most 4 µg/mL.

`O=c1ccc2ccccc2n1CCN1CCC(NCc2cc3cc(Cl)ccc3s2)CC1` [Example 289]: the MIC is at most 4 µg/mL. In the case of `O=c1c(F)cc2ccc(F)cc2n1CCN1CCC(NCc2cc3c(cn2)OCCO3)CC1` [Example 180], the MIC is at most 4 µg/mL. The same measure, in the same setting: with `O=c1cnc2ccc(F)cc2n1CCN1CC[C@H](NCc2cc3c(nn2)OCCO3)[C@H](O)C1` (single isomer, unassigned) [Example 193] the figure was at most 4 µg/mL. Still for that read-out and setting: next, `O=c1cnc2ccc(F)cc2n1CCN1CCC(NCc2cc3c(cn2)OCC3)CC1` [Example 38, 1-(2-{4-[(2,3-dihydrofuro[2,3-c]pyridin-5-ylmethyl)amino]-1-piperidinyl}ethyl)-7-fluoro-2(1H)-quinoxalinone Dihydrochloride]: at most 4 µg/mL; `COc1cnc2ncc(=O)n(CCN3CCC(NCc4cc5c(cn4)OCCO5)CC3)c2c1.O=CO.O=CO` [Example 51B, 1-(2-{4-[(2,3-dihydro[1,4]dioxino[2,3-c]pyridin-7-ylmethyl)amino]-1-piperidinyl}ethyl)-7-(methyloxy)pyrido[2,3-b]pyrazin-2(1H)-one diformate]: at most 4 µg/mL; `COc1ccc2ccc(=O)n(CCN3CCC(NCc4cc5c(nn4)OCCO5)CC3)c2n1` [Example 17, 1-(2-{4-[(6,7-dihydro[1,4]dioxino[2,3-c]pyridazin-3-ylmethyl)amino]-1-piperidinyl}ethyl)-7-(methyloxy)-1,8-naphthyridin-2(1H)-one Dihydrochloride]: at most 4 µg/mL. Still for that read-out and setting: next, `O=c1ccc2ccc(F)cc2n1CCN1CCC(NCc2nc3ccccc3s2)CC1` [Example 287]: at most 4 µg/mL; `O=c1ccc2ccccc2n1CCN1CCC(NCc2cc3ccccc3o2)CC1` [Example 288]: at most 4 µg/mL.

`O=c1ccc2ncccc2n1CCN1CCC(NCc2cc3ccccc3o2)CC1` [Example 282]: the MIC is at most 4 µg/mL. Same read-out and setting: next, `COc1ccc2ncc(=O)n(CCN3C[C@H](CNCc4cc5c(cn4)OCCO5)[C@H](O)C3)c2c1` [Example 226]: at most 4 µg/mL; `Cl.O=c1ccc2ccc(F)cc2n1CCN1CCC(NCc2cc3c(cn2)OCCO3)CC1` [Example 2, 1-(2-{4-[(2,3-dihydro[1,4]dioxino[2,3-c]pyridin-7-ylmethyl)amino]-1-piperidinyl}ethyl)-7-fluoro-2(1H)-quinolinone Hydrochloride]: at most 4 µg/mL; `O=c1ccc2ncc(F)cc2n1CCN1CCC(NCc2cc3c(cn2)OCCO3)CC1` [Example 7, 1-(2-{4-[(2,3-Dihydro[1,4]dioxino[2,3-c]pyridin-7-ylmethyl)amino]-1-piperidinyl}ethyl)-7-fluoro-1,5-naphthyridin-2(1H)-one Hydrochloride]: at most 4 µg/mL.

Regarding `O=c1cnc2c(F)cc(F)cc2n1CCN1CCC(NCc2cc3c(nn2)OCCO3)CC1` [Example 120], the MIC is at most 4 µg/mL. As for `COc1ccc2ncc(=O)n(CCN3C[C@H](CNCc4cc5c(cn4)OCCO5)[C@@H](O)C3)c2n1` [Example 225], the MIC is at most 4 µg/mL. Regarding `COc1ccc2ccc(=O)n(CCN3CCC(NCc4ccc5nnn(C)c5c4)CC3)c2c1` [Example 302], the MIC is at most 4 µg/mL.

The test is the same for the next values; noted with them: ATCC 25618 / H37Rv, 144 h, read-out: MIC value, H37Rv strain (ATCC25618), Middlebrook 7H9+ADC medium, six days at 37° C., resazurin fluorescence after 48 hours.
For `COc1ccc2ccc(=O)n(CCN3C[C@H](CNCc4cc5c(cn4)OCCO5)[C@H](O)C3)c2c1` [Example 74, 1-[2-((3S,4S)-3-{[(2,3-dihydro[1,4]dioxino[2,3-c]pyridin-7-ylmethyl)amino]methyl}-4-hydroxy-1-pyrrolidinyl)ethyl]-7-(methyloxy)-2(1H)-quinolinone Hydrochloride], the MIC was at most 4 µg/mL.

Take `COc1ccc2ccc(=O)n(CCN3C[C@@H](CNCc4ccc5c(n4)NC(=O)CO5)[C@@H](O)C3)c2c1` [Example 53, 6-({[((3R,4R)-4-hydroxy-1-{2-[7-(methyloxy)-2-oxo-1(2H)-quinolinyl]ethyl}-3-pyrrolidinyl)methyl]amino}methyl)-2H-pyrido[3,2-b][1,4]oxazin-3(4H)-one dihydrochloride]: the MIC was at most 4 µg/mL.

For `O=c1ccc2ccc(F)cc2n1CCN1CC[C@@H](O)[C@@H](CNCc2cc3c(cn2)OCCO3)C1` [Example 138, 1-[2-((3S,4R)-3-{[(2,3-Dihydro[1,4]dioxino[2,3-c]pyridin-7-ylmethyl)amino]methyl}-4-hydroxy-1-piperidinyl)ethyl]-7-fluoro-2(1H)-quinolinone Dihydrochloride], the MIC was at most 4 µg/mL. The same measure, in the same setting: next, `Cc1cc(=O)n(CCN2CCC(NCc3cc4c(cn3)OCCO4)CC2)c2cc(F)ccc12` [Example 131, 1-(2-{4-[(2,3-Dihydro[1,4]dioxino[2,3-c]pyridin-7-ylmethyl)amino]-1-piperidinyl}ethyl)-7-fluoro-4-methyl-2(1H)-quinolinone Dihydrochloride]: at most 4 µg/mL; `O=c1ccc2c(F)cc3c(c2n1CCN1CCC(NCc2cc4c(cn2)OCCO4)CC1)OCCO3` [Example 57, 10-(2-{4-[(2,3-dihydro[1,4]dioxino[2,3-c]pyridin-7-ylmethyl)amino]-1-piperidinyl}ethyl)-6-fluoro-2,3-dihydro[1,4]dioxino[2,3-h]quinolin-9(10H)-one hydrochloride]: at most 4 µg/mL.

Still in this test, the particulars now being: ATCC25618|H37RV, 144 h, H37Rv strain (ATCC25618), Middlebrook 7H9+ADC medium, six days at 37° C., resazurin fluorescence after 48 hours, read-out: MIC value.
For `O=c1ccc2ncc(F)cc2n1CCN1CCC(NCc2cc3c(nn2)OCCO3)CC1` [Example 9, Hydrochloride], the MIC is at most 4 µg/mL.

Broadly, the MIC is the least concentration at which growth counts as inhibited.

Source of the values: patent publication US8071592B2 (priority 2006, dated 2011).
